The values below come from paper PMC11995216, “End-to-End Backbone Cyclization Enhances Passive Permeability of bRo5 Oligomeric Depsipeptides with Nonlinear Size Dependence” (ACS Medicinal Chemistry Letters, 2025).

For one data set, the system named is Caco‐2. As to the kind of experiment: Experimental Caco‐2 permeability. The note with it: Caco‐2 experiments, series 2. The format is in vitro ADME. The procedure:
Johnston et al. Supporting information
5.1 Comparison of Experimental Caco‐2 Papp to Calculated LogP
Experimental Caco‐2 vs. Calculated Permeabilities fo r Series 2
*C2.3 was not detected in Caco‐2 experiments
VI. LC/MS and ELSD Traces
In all cases, the large peak near the beginning of the run (R.T. 2‐6 minutes), is the DMSO solvent front.
(also on this page, place not known: 00 . 511 . 522 . 533 . 5 Caco2 Papp (x 10‐6 cm/s) Experimental for)

The conditions of data set [1]: PAMPA, ratio-based method, series 2 macrocycles, previously reported; ref Thorpe et al., Chem. Sci. 2024, 15, 14977; cited from earlier work.
Data set [2] in a line: PAMPA, permeability assay across an artificial membrane. The conditions noted are these: increase: difference between percent diffusion of macrocycle vs linear counterpart.
For data set [3] the following is noted: PAMPA. In general terms: PAMPA measures passive passage across an artificial lipid membrane.
The conditions of data set [4]: initial concentration 500 uM, UV detection.
Data set [5] concerns PAMPA. The conditions noted are these: UV detection, initial concentration 500 uM.
The conditions of data set [6]: calculated using Supplement Equation 1, UV detection.
For data set [7] the following is noted: PAMPA. This is another data set of the same source.
The subject of data set [8] is PAMPA. The conditions noted are these: UV detection.
For data set [9] the following is noted: UV detection.

“And” between values parts separate entries of the source, which are not always exact repeats. Equal values may be shown once. Read-outs that look alike come from different tables or passages of the source. Starred links: 1 amine or outer side, 2 acyl side, 3 side chain; linkers in the order of their positions; H or OH if unused. Non-standard residues stand in square brackets, D forms with d. Residues, ends and D or L forms follow the SMILES beside them. *: point of attachment. X1 = CCCCC[C@H](O[*:1])C(=O)[*:2]; Ahp(2) = CCCCC[C@H](N)C(=O)O; dNMeA = CN[C@H](C)C(=O)O; Boc = CC(C)(C)OC(=O)*; OBn = c1ccc(CO*)cc1

For `CCCCC[C@@H]1NC(=O)[C@@H](C)N(C)C(=O)[C@H](CCCCC)OC(=O)[C@@H](C)N(C)C(=O)[C@H](CCCCC)NC(=O)[C@@H](C)N(C)C(=O)[C@H](CCCCC)OC(=O)[C@@H](C)N(C)C1=O` [Compound C2.3] (cyclo([Ahp(2)][dNMeA][X1][dNMeA][Ahp(2)][dNMeA][X1][dNMeA])), the “Experimental Caco‐2 Papp” value with Caco‐2 is recorded as “not detected”. In addition, the LogPapp in [1] was -5.23 ± 0.04. Further, in data set [2], the Δ % diffusion result is “↑10%”.
For the molecule `CCCCC[C@@H]1NC(=O)[C@@H](C)N(C)C(=O)[C@H](CCCCC)NC(=O)[C@@H](C)N(C)C(=O)[C@H](CCCCC)NC(=O)[C@@H](C)N(C)C(=O)[C@H](CCCCC)NC(=O)[C@@H](C)N(C)C1=O` [Compound C2.5] (cyclo([Ahp(2)][dNMeA][Ahp(2)][dNMeA][Ahp(2)][dNMeA][Ahp(2)][dNMeA])), the Δ % diffusion entry in data set [3] (500 uM) is “↑6%”. The LogPapp in data set [1] is recorded as -5.31 ± 0.04.
One may read the Papp as the rate of passage across a membrane or cell layer, normalised by area and donor concentration. Higher therefore signals fast passage. Take `CCCCC[C@H](NC(=O)[C@@H](C)N(C)C(=O)[C@H](CCCCC)OC(=O)[C@@H](C)N(C)C(=O)[C@H](CCCCC)NC(=O)[C@@H](C)N(C)C(=O)[C@H](CCCCC)OC(=O)[C@@H](C)N(C)C(=O)OC(C)(C)C)C(=O)OCc1ccccc1` [Compound L2.3] (Boc-[dNMeA][X1][dNMeA][Ahp(2)][dNMeA][X1][dNMeA][Ahp(2)]-OBn): the donor concentration after incubation is 388 µM and 369 µM in data set [4] (Well 1 / [donor], Well 1); 382 µM and 380 µM in [4] (Well 2 / [donor], Well 2); 369 µM and 377 µM in data set [4] (Well 3 / [donor], Well 3); 380 µM and 370 µM in data set [4] (Well 4 / [donor], Well 4); 353 µM and 358 µM in data set [4] (Well 5 / [donor], Well 5). Also, the LogPapp in data set [3] is listed as -5.48 ± 0.04. Besides, in data set [3], the Δ % diffusion result is listed as “↑10%”. Moreover, the Acceptor Concentration in the data set with PAMPA [5] (Acceptor Concentration (uM) / [row 1]) came to 89.6 µM; in the data set on PAMPA [5] (Acceptor Concentration (uM) / [row 2]), 71.9 µM; with PAMPA [5] (Acceptor Concentration (uM) / [row 3]) it was 75.1 µM; in the data set with PAMPA [5] (Acceptor Concentration (uM) / [row 4]), 81.3 µM; in the data set on PAMPA [5] (Acceptor Concentration (uM) / [row 5]), 83.9 µM; in the data set with PAMPA [5] (Acceptor Concentration (uM) / [row 6]) it was 71.2 µM. Besides, the Acceptor Concentration in the data set on PAMPA [5] (Acceptor Concentration (uM) / [row 7]) came to 69.7 µM; with PAMPA [5] (Acceptor Concentration (uM) / [row 8]), 66.2 µM; with PAMPA [5] (Acceptor Concentration (uM) / [row 9]) it was 69.9 µM; in the data set on PAMPA [5] (Acceptor Concentration (uM) / [row 10]), 69 µM. Moreover, the %T in [6] (Well 1 / %T, Well 1) was 0.55% and 0.49%; in [6] (Well 2 / %T, Well 2), 0.56% and 0.52%; in [6] (Well 3 / %T, Well 3), 0.52% and 0.55%; in data set [6] (Well 4 / %T, Well 4) it was 0.5% and 0.53%; in data set [6] (Well 5 / %T, Well 5) it was 0.54% and 0.53%. The Papp in [7] worked out at 3.32 ± 0.31 ×10⁻⁶ cm/s; in the data set with PAMPA [8] (Papp (x 10^-6 cm/s) / [row 1]), 3.76 ×10⁻⁶ cm/s; with PAMPA [8] (Papp (x 10^-6 cm/s) / [row 2]), 3.12 ×10⁻⁶ cm/s; with PAMPA [8] (Papp (x 10^-6 cm/s) / [row 3]), 3.36 ×10⁻⁶ cm/s; with PAMPA [8] (Papp (x 10^-6 cm/s) / [row 4]), 3.52 ×10⁻⁶ cm/s; in the data set with PAMPA [8] (Papp (x 10^-6 cm/s) / [row 5]), 3.88 ×10⁻⁶ cm/s. In addition, the Papp in the data set with PAMPA [8] (Papp (x 10^-6 cm/s) / [row 6]) was 3.19 ×10⁻⁶ cm/s; with PAMPA [8] (Papp (x 10^-6 cm/s) / [row 7]), 3.05 ×10⁻⁶ cm/s; in the data set with PAMPA [8] (Papp (x 10^-6 cm/s) / [row 8]), 2.93 ×10⁻⁶ cm/s; in the data set on PAMPA [8] (Papp (x 10^-6 cm/s) / [row 9]), 3.14 ×10⁻⁶ cm/s; with PAMPA [8] (Papp (x 10^-6 cm/s) / [row 10]), 3.2 ×10⁻⁶ cm/s. Also, the % recovery in [9] (Well 1 / %R, Well 1) is 96% and 88%; in [9] (Well 2 / %R, Well 2), 91% and 90%; in data set [9] (Well 4 / %R, Well 4), 92% and 88%; in data set [9] (Well 5 / %R, Well 5) it was 87% and 85%.
